Experiment [1] concerns spinally injured rats. The experiment is described as follows: Single dose of SPM 927 on allodynia-like behaviours in spinally injured rats (von Frey hairs, brushing, cold). The format is in vivo, Sprague-Dawley rats. The settings on record: intraperitoneally. The procedure: (§1) Male and female Sprague-Dawley rats (Möllegard, Denmark) weighing 200-250 g at the start of the experiments were used.
(§2) Ischemic spinal cord injury was produced in female rats according to methods described previously (Xu et al., 1992). In brief, the rats were anesthetized with chloral hydrate (300 mg/kg, i.p.) and a midline incision was made on the skin overlying vertebral segments T12-L1. The animals were positioned beneath an argon laser beam and irradiated for 10 min with the beam directed towards vertebral segment T12 or T13 (spinal segments L3-5). Immediately prior to and 5 min after the start of the irradiation, erythrosin B (Red No 3, Aldrich-Chemie, Steinheim, Germany) dissolved in 0.9% saline was injected intravenously through the tail vein at a dose of 32.5 mg/kg. A tunable argon ion laser (Innova model 70, Coherent Laser Product Division, Palo Alto, Calif.) operating at 514 nm was used. The average beam output power was 160 mW. The beam covered the entire width of the vertebra and the length of the beam was 1-2 mm. After irradiation, the wound was closed in layers and the rats were allowed to recover. The bladder was emptied manually for 1 week.
(§3) The vocalization threshold to graded mechanical touch/pressure stimuli were tested with von Frey hairs. During testing the rats were gently restrained in a standing position and the von Frey hair was pushed onto the skin until the filament became bent. The frequency of stimulation was about 1/s and at each intensity the stimulus was applied 5-10 times. The intensity of stimulation which induced consistent vocalization (>75% response rate) was considered as pain threshold.
(§4) The response of rats to brushing stimulation was tested with the blunt point of a pencil gently stroking the skin on the trunk in a rostro-caudal direction. The frequency of the stimulation was about 1/s and responses were graded with a score of 0=no observable response; 1=transient vocalization and moderate effort to avoid probe; 2=consistent vocalization and aversive reactions and 3=sustained and prolonged vocalization and aggressive behaviours.
(§5) Response to cold was tested with ethyl chloride spray applied to the shaved allodynic skin area. The response was graded with a score of 0=no observable response; 1=localized response (skin twitch and contraction), no vocalization; 2=transient vocalization, moderate struggle and 3=sustained vocalization and aggression.
(§6) SPM 927 was dissolved in physiological saline and injected intraperitoneally. The data for von Frey hairs, brushing and cold are expressed as median±median absolute deviation (M.A.D.) and analysed with Wilcoxon signed-ranks test or paired t-test.

The subject of experiment [2] is spinally injured rats. The experiment is described as follows: Repeated administration of SPM 927 in spinally injured rats (von Frey hairs, brushing, cold). The conditions noted are these: 20 mg/kg twice a day. The format is in vivo, Sprague-Dawley rats. The method, then:
as §1, §2, §3, §4, §5, §6
The animals were injected with 20 mg/kg SPM 927 twice a day. The pre-drug response and the response 1 h after injection were assessed in the morning session. […] The normalization of basal sensitivity lasted at least 8 days without signs of tolerance.

Experimental findings from patent US7794987B2, “Method for treating central neuropathic pain” (UCB Pharma GmbH, priority 2003, dated 2010) are described below.

For `COC[C@@H](NC(C)=O)C(=O)NCc1ccccc1` [SPM 927, (R)-2-acetamide-N-benzyl-3-methoxypropionamide], the “effect on mechanical and cold allodynia” value with spinally injured rats [1] (10 mg/kg) was “no effect”. Further, the “effect on mechanical and cold allodynia” value with spinally injured rats [1] (15 mg/kg) is “partially alleviated mechanical and cold allodynia in the majority, but not all, rats”. The “effect on brushing and cold” value in the experiment with spinally injured rats [1] (15 mg/kg, FIG. 1B, C) is on record as “significant effect”. Also, in the experiment on spinally injured rats [1] (15 mg/kg, FIG. 1a), the “increase in threshold to stimulation with von Frey hairs” value is “significant, but did not return to normal level”. In the experiment with spinally injured rats [1] (20 mg/kg), the “duration of complete reversal of mechanical and cold allodynia” value is on record as “about 2 h”; the “effect on mechanical and cold allodynia” value is “completely reversed mechanical and cold allodynia in all rats”. Moreover, the “vocalization threshold to von Frey hair stimulation 1 h after injection” value in the experiment on spinally injured rats [2] (days 1-3) is “increase in vocalization threshold”. Besides, in the experiment on spinally injured rats [2] (discontinued after day 7), the “allodynia to stimulation with von Frey hairs and cold after discontinuation” value is reported as “reappeared on day 9”; the “effect on brush stimulation after discontinuation” value is reported as “maintained up to day 11”. Also, the “pre-drug response to von Frey hair stimulation” value with spinally injured rats [2] (FIG. 2A) is reported as “normalized on day 4”. Further, the “baseline responses to brushing and cold” value with spinally injured rats [2] (FIG. 2B, 2C) was “normalized from day 2 to day 6 respectively”. The “duration of normalization of basal sensitivity” value in the experiment with spinally injured rats [2] (without signs of tolerance) is on record as “at least 8 days”.
